The first assay addresses T1, human TREM2 (Homo sapiens, UniProt Q9NZC2).
T1 construct: expressed in transfected cells; host or cells: HEK293T-hTREM2 cells (HEK cell line expressing human TREM2 and DAP12)
As to the kind of experiment: In vitro measurement of TREM2 activity using cellular phosphorylation of spleen tyrosine kinase (Syk), AlphaLisa, HEK293T-hTREM2 cells. Format: cell-based. Conditions: HEK293T cells expressing human TREM2 and DAP12, 45 min at room temperature, Table D. The protocol:
In Vitro Measurement of Triggering Receptor Expressed on Myeloid Cells 2 Activity Using Cellular Phosphorylation of Spleen Tyrosine Kinase (“Syk”) Assays
Measurement of TREM2 agonist potency was done using a HEK cell line expressing human TREM2 and DAP12 (HEK293T-hTREM2 cells). Binding of small molecules to, and activation of, TREM2 increases the phosphorylation of Syk. The resultant levels of Syk phosphorylation are measured using a commercial AlphaLisa reagent kit. To perform the assay, HEK-hTREM2 cells were plated at 14,000 cells per well in a 384 well plate, in 25 μL of complete growth media and incubated at 37° C., 5% CO2 for 20-24 hours.
Prior to the assay, test compounds were diluted in the 384 well plates in assay buffer and allowed to equilibrate for 30 minutes. Growth media was removed from cell plates by inversion on blotting paper, and 25 μL of test articles in assay buffer was added to cells. Cells were incubated for 45 minutes at room temperature. After 45 minutes, assay buffer was removed and 10 μL of lysis buffer was added. Plates were shaken for 20 minutes at 350 RPM at room temperature. After complete lysis, AlphaLisa reagents were added to the lysate, and fluourescence intensity was measured using a Perkin Elmer Envision plate reader. Intensities were used to generate a standard curve, and % activation was calculated. Curve fitting was performed using Prism v9 software, log(agonist) vs response—variable slope (four parameters), and EC50s were calculated from the curve fit.
The results presented in Tables D and D-2 have been generated with the in vitro assay described above. This assay may be used to test any of the compounds described herein to assess and characterize a compound's ability to act as an agonist of TREM2.
(In general: Bead proximity is the source of the signal in Alpha formats.)
T1 sequence (Q9NZC2 19-230): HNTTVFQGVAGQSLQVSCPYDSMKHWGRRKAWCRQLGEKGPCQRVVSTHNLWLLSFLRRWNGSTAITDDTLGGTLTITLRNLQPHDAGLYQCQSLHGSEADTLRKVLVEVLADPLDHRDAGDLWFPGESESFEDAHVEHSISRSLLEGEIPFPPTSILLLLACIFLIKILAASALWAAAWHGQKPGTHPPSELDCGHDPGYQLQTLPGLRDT
T1 sequence (O43914 22-113 partner): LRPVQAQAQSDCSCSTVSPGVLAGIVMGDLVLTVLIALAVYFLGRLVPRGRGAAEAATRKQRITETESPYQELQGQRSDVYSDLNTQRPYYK
Broadly, the EC50 is the concentration at which the effect is half-maximal. A lower EC50 goes with a more potent agent. Consider `Cc1cc([C@@H]2C[C@H](c3nc(-c4ccc(F)cc4F)c4sc(N(C)C)nc4n3)CCO2)ccn1` [compound 115, 7-(2,4-difluorophenyl)-N,N-dimethyl-5-[(2S,4R)-2-(2-methyl-4-pyridyl)tetrahydropyran-4-yl]thiazolo[4,5-d]pyrimidin-2-amine], for which the EC50 is 0.5 to 3 µM.

`Cc1cc([C@H]2C[C@@H](c3nc(-c4ccc(F)cc4F)c4sc(N(C)C)nc4n3)CCO2)ccn1` [compound 116, 7-(2,4-difluorophenyl)-N,N-dimethyl-5-[(2R,4S)-2-(2-methyl-4-pyridyl)tetrahydropyran-4-yl]thiazolo[4,5-d]pyrimidin-2-amine] displayed an EC50 not above 0.05 µM.

In turn, `C[C@@H]1CN(c2nc(-c3ccc(C(F)(F)F)cc3)c3sc(N(C)C)nc3n2)C[C@H](c2cnn(C3CC3)c2)O1` [compound 117, 5-[(2S,6R)-2-(1-cyclopropyl-pyrazol-4-yl)-6-methyl-morpholin-4-yl]-N,N-dimeth-yl-7-[4-(trifluoromethyl)-phenyl]thiazolo[4,5-d]pyr-imidin-2-amine] registered an EC50 of 0.05 to 0.5 µM.

For `CC(C)Oc1nc2nc(N3C[C@@H](C)O[C@@H](c4cnn(C5CC5)c4)C3)nc(-c3ccc(C(F)(F)F)cc3F)c2s1` [compound 118, (2S,6R)-2-(1-cyclopropylpyrazol-4-yl)-4-[7-[2-fluoro-4-(trifluoromethyl)-phenyl]-2-isopropoxy-thiazolo[4,5-d]pyrimidin-5-yl]-6-methyl-morpholine], the concentration giving a half-maximal response (EC50) is 0.5 to 3 µM.

`Cc1cc([C@H]2CN(c3nc(-c4ccc(F)cc4F)c4sc(N(C)C)nc4n3)C[C@@H](C)O2)ccn1` [compound 123, 7-(2,4-difluorophenyl)-N,N-dimethyl-5-[(2R,6S)-2-methyl-6-(2-methyl-4-pyridyl)morpholin-4-yl]thiazolo[4,5-d]pyrimidin-2-amine] yielded an EC50 not above 0.05 µM.

As to `C[C@@H]1CCCN1c1nc2nc([C@H]3CCO[C@@H](c4cnn(C5CC5)c4)C3)nc(-c3ccc(F)cc3F)c2n1C` [compound 124, 6-(2,4-difluorophenyl)-7-methyl-2-[(2R,4S)-2-(1-cyclopropylpyrazol-4-yl)tetrahydropyran-4-yl]-8-[(2R)-2-methylpyrrolidin-1-yl]purine], the EC50 lay within 0.05 to 0.5 µM.

The molecule `C[C@H]1CCCN1c1nc2nc([C@H]3CCO[C@@H](c4cnn(C5CC5)c4)C3)nc(-c3ccc(F)cc3F)c2n1C` [compound 125] returned an EC50 of 0.05 to 0.5 µM.

Turning to `C[C@@H]1CN(c2nc(-c3ccc(C(F)(F)F)cc3F)c3[nH]c(N(C)C)nc3n2)C[C@H](c2cnn(C3CC3)c2)O1` [compound 126, 2-((2S,6R)-2-(1-cyclopropyl-1H-pyrazol-4-yl)-6-methylmorpholino)-6-(2-fluoro-4-(trifluoromethyl)phenyl)-N,N-dimethyl-9H-purin-8-amine], the 50% effective concentration (EC50) is 0.05 to 0.5 µM.

For the molecule `Cn1c(C(F)F)nc2nc([C@H]3CCO[C@@H](c4cnn(C5CC5)c4)C3)nc(-c3ccc(C(F)(F)F)cc3F)c21` [compound 127, 2-[(2R,4S)-2-(1-cyclopropylpyrazol-4-yl)tetrahydropyran-4-yl]-8-(difluoromethyl)-6-[2-fluoro-4-(trifluoromethyl)phenyl]-7-methyl-purine], the EC50 fell in the range of 0.05 to 0.5 µM.

`CN(C)c1nc2c(C34CC(C(F)(F)F)(C3)C4)nc([C@H]3CCO[C@@H](c4cnn(C5CC5)c4)C3)nc2n1C` [compound 128, 2-[(2R,4S)-2-(1-cyclopropylpyrazol-4-yl)tetrahydropyran-4-yl]-N,N-9-trimethyl-6-[3-(trifluoromethyl)-1-bicyclo[1.1.1]pentanyl]purin-8-amine] returned an EC50 of 0.5 to 3 µM.

`CN(C)c1nc2nc([C@H]3CCO[C@@H](c4cnn(C5CC5)c4)C3)nc(C34CC(C(F)(F)F)(C3)C4)c2[nH]1` [compound 129, 2-[(2R,4S)-2-(1-cyclopropylpyrazol-4-yl)tetrahydropyran-4-yl]-N,N-dimethyl-6-[3-(trifluoromethyl)-1-bicyclo[1.1.1]pentanyl]-7H-purin-8-amine] returned an EC50 of 0.5 to 3 µM.

`C[C@@H]1CN(c2nc(C34CC(C(F)(F)F)(C3)C4)c3c(n2)nc(N(C)C)n3C)C[C@H](c2cnn(C3CC3)c2)O1` [compound 130, 2-[(2S,6R)-2-(1-cyclopropylpyrazol-4-yl)-6-methyl-morpholin-4-yl]-N,N,7-trimethyl-6-[3-(trifluoromethyl)-1-bicyclo[1.1.1]pentanyl]purin-8-amine] gave an EC50 not above 0.05 µM.

`C[C@@H]1CN(c2cc(-c3ccc(F)cc3F)n3ncnc3n2)C[C@H](c2cnn(C3CC3)c2)O1` [compound 131, (2S,6R)-2-(1-cyclopropyl-1H-pyrazol-4-yl)-4-(7-(2,4-difluorophenyl)-[1,2,4]triazolo[1,5-a]pyrimidin-5-yl)-6-methylmorpholine] returned an EC50 of 0.5 to 3 µM.

In turn, `Cc1c(F)ccc(-c2cc(N3C[C@@H](C)O[C@@H](c4cnn(C5CC5)c4)C3)nc3ncnn23)c1F` [compound 132, (2S,6R)-2-(1-cyclopropyl-1H-pyrazol-4-yl)-4-(7-(2,4-difluoro-3-methylphenyl)-[1,2,4]triazolo[1,5-a]pyrimidin-5-yl)-6-methylmorpholine] gave an EC50 of 0.5 to 3 µM.

`Cc1cn2c(-c3ccc(C(F)(F)F)cc3F)nc([C@H]3CCO[C@@H](c4cnn(C5CC5)c4)C3)cc2n1` [compound 133, 7-((2R,4S)-2-(1-cyclopropyl-1H-pyrazol-4-yl)tetrahydro-2H-pyran-4-yl)-5-(2-fluoro-4-(trifluoromethyl)phenyl)-2-methylimidazo[1,2-c]pyrimidine] yielded an EC50 of 0.05 to 0.5 µM.

As for `Cc1cn2c(-c3ccc(Cl)cc3F)nc(N3C[C@@H](C)O[C@@H](c4cnn(C5CC5)c4)C3)cc2n1` [compound 134, (2S,6R)-4-(5-(4-chloro-2-fluorophenyl)-2-methylimidazo[1,2-c]pyrimidin-7-yl)-2-(1-cyclopropyl-1H-pyrazol-4-yl)-6-methylmorpholine], the EC50 fell in the range of 0.05 to 0.5 µM.

The assay is the same for the next values; noted with them: HEK293T cells expressing human TREM2 and DAP12, 45 min at room temperature, Table D-2.
Regarding `CN1Cc2c(cc(N3CCO[C@@H](c4cnn(C)c4)C3)nc2-c2ccc(Cl)cc2F)C1=O` [compound 200], the EC50 is 3 to 100 µM.

As for `Cc1cc([C@H]2CN(c3cc4c(c(-c5ccc(Cl)cc5F)n3)CN(C)C4=O)CCO2)ccn1` [compound 201], the EC50 lay in the range of 0.5 to 3 µM.

`CN1Cc2c(cc(N3CCO[C@@H](c4cnn(C)c4)C3)nc2-c2ccc(F)cc2F)C1=O` [compound 202] returned an EC50 of 0.5 to 3 µM.

As for `Cc1cc([C@H]2CN(c3cc4c(c(-c5ccc(F)cc5F)n3)CN(C)C4=O)CCO2)ccn1` [compound 203], the EC50 was 3 to 100 µM.

`CCN1Cc2c(cc(N3CCO[C@@H](c4cnn(C)c4)C3)nc2-c2ccc(Cl)cc2F)C1=O` [compound 204] had an EC50 of 0.05 to 0.5 µM.

Molecule `CC(C)N1Cc2c(cc(N3CCO[C@@H](c4cnn(C)c4)C3)nc2-c2ccc(Cl)cc2F)C1=O` [compound 205] had an EC50 of 0.5 to 3 µM.

In turn, `C[C@H]1CN(c2cc3c(c(-c4ccc(Cl)cc4F)n2)CN(C)C3=O)CCO1` [compound 206] had a half-maximal effective concentration (EC50) of 0.5 to 3 µM.

`CN1C(=O)c2cc(-c3ccc(Cl)cc3F)nc(N3CCO[C@@H](c4cnn(C)c4)C3)c2C1(C)C` [compound 207] displayed a concentration for a half-maximal effect (EC50) of 3 to 100 µM.

`CN1C(=O)c2cc(N3CCO[C@@H](c4cnn(C)c4)C3)nc(-c3ccc(Cl)cc3F)c2C1(C)C` [compound 208] returned an EC50 of 3 to 100 µM.

With `C[C@@H]1c2c(cc(N3CCO[C@@H](c4cnn(C)c4)C3)nc2-c2ccc(Cl)cc2F)C(=O)N1C` [compound 209], the EC50 fell in the range of 3 to 100 µM.

Turning to `CN1Cc2c(cc(-c3ccc(Cl)cc3F)nc2-c2ccc(Cl)cc2F)C1=O` [compound 210], the EC50 was 3 to 100 µM.

As for `C[C@H]1c2c(cc(-c3ccc(Cl)cc3F)nc2-c2ccc(Cl)cc2F)C(=O)N1C` [compound 211], the EC50 is 3 to 100 µM.

Turning to `CN1Cc2c(cc(N3CCO[C@@H](c4cnn(C5CC5)c4)C3)nc2-c2ccc(Cl)cc2F)C1=O` [compound 212], the 50% effective concentration (EC50) lay in the range of 0.05 to 0.5 µM.

`Cc1cc([C@H]2CN(c3cc4c(c(-c5ccc(Cl)cc5F)n3)C(C)N(C)C4=O)CCO2)ccn1` (stereo partly drawn) [compound 213] displayed an EC50 of 3 to 100 µM.

With `Cc1cc([C@H]2CN(c3cc4c(c(-c5ccc(Cl)cc5F)n3)[C@@H](C)N(C)C4=O)CCO2)ccn1` [compound 214], the half-maximal effective concentration (EC50) was 3 to 100 µM.

Regarding `Cc1cc([C@H]2CN(c3cc4c(c(-c5ccc(Cl)cc5F)n3)[C@H](C)N(C)C4=O)CCO2)ccn1` [compound 215], the EC50 was in the range of 3 to 100 µM.

`CN1Cc2c(cc(N3CCO[C@@H](c4cnn(C)c4)C3)nc2C2CC(C(F)(F)F)C2)C1=O` (stereo partly drawn) [compound 216] displayed an EC50 of 3 to 100 µM.

Take `Cc1cc([C@H]2CN(c3cc4c(c(-c5ccc(Cl)cc5F)n3)CN(C)C4=O)CCO2)cnn1` [compound 217]: the concentration for a half-maximal effect (EC50) is 0.5 to 3 µM.

For `CN1C(=O)c2cc([C@@H]3CCO[C@H](c4cnn(C5CC5)c4)C3)nc(-c3ccc(F)cc3F)c2C1=O` [compound 218], the EC50 is 0.5 to 3 µM.

Take `CN1C(=O)c2cc([C@H]3CCO[C@@H](c4cnn(C5CC5)c4)C3)nc(-c3ccc(F)cc3F)c2C1=O` [compound 219]: the EC50 lay in the range of 0.5 to 3 µM.

These data come from US20260315483A1, “HETEROCYCLIC COMPOUNDS AS TRIGGERING RECEPTOR EXPRESSED ON MYELOID CELLS 2 AGONISTS AND METHODS OF USE” (VIGIL NEUROSCIENCE, INC., priority 2023, published 2026).
